Results published in patent US12187706B2, “NLRP3 modulators” (INNATE TUMOR IMMUNITY, INC., priority 2019, dated 2025).

Experiments:
NLRP3 = target: T1, NLRP3 (Homo sapiens, UniProt Q96P20); assay: Measurement of IL-1β production in PMA-differentiated THP-1 cells (NLRP3 hIL1B); format: cell-based
T1 construct: host or cells: PMA-differentiated THP-1 cells
Procedure, shortened: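 THP-1 cells differentiated with PMA, then replated in RPMI with 2% FBS and exposed to compound for 4 h (alternative: 2 h; hTRF protocol: 2 h at 37 °C, top concentration 10 μM). Supernatant IL-1β was quantified by ELISA or HTRF. Final DMSO 1%, with vehicle control.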

human TLR7 = target: T2, human TLR7 (Homo sapiens, UniProt Q9NYK1); assay: In vitro human TLR7 reporter assay (HEK-Blue, NF-kB/AP1-inducible SEAP); format: cell-based; conditions: HEK-Blue TLR7 cells, SEAP reporter; read-out: TLR7 Agonist EC50 value
T2 construct: host or cells: human HEK-Blue cells with NF-kB/AP1-inducible SEAP reporter
T2 sequence (Q9NYK1 27-1049): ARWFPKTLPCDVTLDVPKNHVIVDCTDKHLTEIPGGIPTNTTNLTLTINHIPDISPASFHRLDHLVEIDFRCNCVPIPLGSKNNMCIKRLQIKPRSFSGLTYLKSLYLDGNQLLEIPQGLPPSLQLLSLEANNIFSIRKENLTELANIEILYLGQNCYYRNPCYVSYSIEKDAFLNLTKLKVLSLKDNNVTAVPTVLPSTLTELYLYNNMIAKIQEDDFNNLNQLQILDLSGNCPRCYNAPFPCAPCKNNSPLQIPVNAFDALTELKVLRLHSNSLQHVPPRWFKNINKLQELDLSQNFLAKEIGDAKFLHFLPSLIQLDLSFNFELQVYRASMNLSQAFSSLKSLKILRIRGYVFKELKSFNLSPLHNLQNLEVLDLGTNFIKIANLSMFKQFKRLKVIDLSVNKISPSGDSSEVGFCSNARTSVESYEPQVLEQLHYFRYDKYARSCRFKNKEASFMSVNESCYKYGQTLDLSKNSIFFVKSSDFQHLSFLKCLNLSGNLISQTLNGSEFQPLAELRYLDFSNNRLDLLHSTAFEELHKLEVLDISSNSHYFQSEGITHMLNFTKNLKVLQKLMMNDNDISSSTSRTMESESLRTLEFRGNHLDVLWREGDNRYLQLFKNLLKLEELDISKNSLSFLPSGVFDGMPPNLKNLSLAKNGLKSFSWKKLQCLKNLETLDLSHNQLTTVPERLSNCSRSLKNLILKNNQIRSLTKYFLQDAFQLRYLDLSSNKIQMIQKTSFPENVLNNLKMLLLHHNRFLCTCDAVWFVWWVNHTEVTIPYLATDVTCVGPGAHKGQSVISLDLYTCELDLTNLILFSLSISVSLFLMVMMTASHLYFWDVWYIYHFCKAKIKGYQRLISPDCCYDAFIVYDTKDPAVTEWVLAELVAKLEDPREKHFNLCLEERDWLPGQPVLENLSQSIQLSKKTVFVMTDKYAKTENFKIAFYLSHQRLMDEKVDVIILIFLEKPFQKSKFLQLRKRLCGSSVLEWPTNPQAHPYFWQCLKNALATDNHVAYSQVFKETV
Description: In Vitro Human TLR7 and TLR8 Binding Reporter Assays Logarithmically-growing human HEK-Blue cells co-expressing a TLR7 or TLR8 gene and a NF-kB/AP1-inducible SEAP (secreted embryonic alkaline phosphatase; […] Cellular SEAP production is measured using an Envision plate reader instrument thirty minutes after adding freshly-made Quanti-Blue reagent (prepared by following manufacturer instructions; Invivogen, San Diego, CA) to the HEK-Blue TLR Nf-kB-SEAP cell reactions. All EC50 values (half-maximal effective concentration) are determined using proprietary data analysis software.

T1 sequence (Q96P20 whole entry): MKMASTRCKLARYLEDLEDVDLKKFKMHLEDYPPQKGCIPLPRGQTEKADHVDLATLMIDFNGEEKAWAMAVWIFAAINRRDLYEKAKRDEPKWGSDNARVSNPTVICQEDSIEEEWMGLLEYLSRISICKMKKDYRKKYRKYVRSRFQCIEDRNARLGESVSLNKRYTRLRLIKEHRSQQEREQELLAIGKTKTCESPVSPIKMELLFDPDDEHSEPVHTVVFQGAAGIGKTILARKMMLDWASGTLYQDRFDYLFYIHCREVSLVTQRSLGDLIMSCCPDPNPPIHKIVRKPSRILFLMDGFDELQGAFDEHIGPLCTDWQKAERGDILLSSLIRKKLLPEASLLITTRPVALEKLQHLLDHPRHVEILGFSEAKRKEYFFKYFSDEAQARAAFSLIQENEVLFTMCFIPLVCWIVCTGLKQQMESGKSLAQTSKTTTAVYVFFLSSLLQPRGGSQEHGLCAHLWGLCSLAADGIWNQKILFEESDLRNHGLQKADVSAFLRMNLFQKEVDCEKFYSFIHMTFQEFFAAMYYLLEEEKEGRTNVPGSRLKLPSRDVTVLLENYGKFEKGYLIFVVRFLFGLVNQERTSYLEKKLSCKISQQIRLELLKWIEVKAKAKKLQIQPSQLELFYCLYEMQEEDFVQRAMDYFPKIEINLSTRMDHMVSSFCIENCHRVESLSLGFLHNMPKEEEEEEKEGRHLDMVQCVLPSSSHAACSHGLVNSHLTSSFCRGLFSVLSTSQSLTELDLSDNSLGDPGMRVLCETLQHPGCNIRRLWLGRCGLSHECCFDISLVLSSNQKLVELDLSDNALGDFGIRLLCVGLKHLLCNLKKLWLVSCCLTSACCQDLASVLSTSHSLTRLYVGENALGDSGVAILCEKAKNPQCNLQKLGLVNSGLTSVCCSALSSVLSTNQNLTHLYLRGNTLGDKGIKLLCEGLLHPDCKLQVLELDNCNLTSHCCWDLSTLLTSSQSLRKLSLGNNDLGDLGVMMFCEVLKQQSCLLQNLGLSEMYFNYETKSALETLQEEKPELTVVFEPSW

| Structure (SMILES) | EC50 (NLRP3) | EC50 (human TLR7) |
| --- | --- | --- |
| CCCC(CCO)Nc1nc(N)nc2cc(-c3ccn[nH]3)ccc12 (racemic) [Example 96, rac-3-((2-amino-7-(1H-pyrazol-5-yl)quinazolin-4-yl)amino)hexan-1-ol] | 690 nM | 1000 to 20000 nM |
| CCCCC(CCO)Nc1nc(N)nc2cc(-c3ccn[nH]3)ccc12 (racemic) [Example 99, rac-3-((2-amino-7-(1H-pyrazol-5-yl)quinazolin-4-yl)amino)heptan-1-ol] | 740 nM | 1000 to 20000 nM |
| Nc1nc(N2CCCOCC2)c2c(F)cc(-c3cc[nH]n3)cc2n1 [Example 123] | 2860 nM | – |
| Nc1nc(NCc2cc[nH]n2)c2c(F)cc(-c3cc[nH]n3)cc2n1 [Example 124] | 600 nM | – |
| Nc1nc(NCCO)c2c(F)cc(-c3cc[nH]n3)cc2n1 [Example 126] | 760 nM | – |
| Nc1nc(N[C@@H]2CCOC2)c2c(F)cc(-c3cc[nH]n3)cc2n1 [Example 127] | 1220 nM | – |
| Nc1nc(NCc2cncnc2)c2c(F)cc(-c3cc[nH]n3)cc2n1 [Example 128] | 830 nM | – |
| Nc1nc(NCc2cc[nH]n2)c2c(Cl)cc(-c3cc[nH]n3)cc2n1 [Example 129] | 370 nM | – |
| COc1cc(-c2cc[nH]n2)cc2nc(N)nc(NCCO)c12 [Example 131] | 5610 nM | – |
| COc1cc(-c2cc[nH]n2)cc2nc(N)nc(NCc3cc[nH]n3)c12 [Example 132] | 2180 nM | – |
| COc1cc(-c2cc[nH]n2)cc2nc(N)nc(N[C@@H]3CCOC3)c12 [Example 133] | 650 nM | – |
| COc1cc(-c2cc[nH]n2)cc2nc(N)nc(NCCc3ccccn3)c12 [Example 134] | 1740 nM | – |
| COc1cc(-c2cc[nH]n2)cc2nc(N)nc(NCc3cncnc3)c12 [Example 135] | 1440 nM | – |
| Cc1cc(-c2cc[nH]n2)cc2nc(N)nc(NCc3cncnc3)c12 [Example 136] | 1060 nM | – |
| Cc1cc(-c2cc[nH]n2)cc2nc(N)nc(NCc3cc[nH]n3)c12 [Example 137] | 170 nM | – |
| Nc1nc(N[C@@H]2COCC[C@H]2O)c2ccc(-c3ccn[nH]3)cc2n1 [Example 138] | 2140 nM | – |
| CN1CC[C@H](Nc2nc(N)nc3cc(-c4ccn[nH]4)ccc23)C1 [Example 139] | 1770 nM | – |
| Nc1nc(NCCOCCO)c2ccc(-c3ccn[nH]3)cc2n1 [Example 140] | 1020 nM | – |
| Cc1cc(C)c(CNc2nc(N)nc3cc(-c4ccn[nH]4)ccc23)c(=O)[nH]1 [Example 143] | 1230 nM | – |
| Nc1nc(N[C@H]2C[C@H](O)C2)c2ccc(-c3ccn[nH]3)cc2n1 [Example 154] | 160 nM | – |

| Structure (SMILES) | EC50 (NLRP3) | EC50 (human TLR7) |
| --- | --- | --- |
| Nc1nc(NCCN2CCOCC2)c2ccc(-c3ccn[nH]3)cc2n1 [Example 157] | 1320 nM | – |
| Nc1nc(N[C@H]2C[C@@H](O)C2)c2ccc(-c3ccn[nH]3)cc2n1 [Example 158] | 1590 nM | – |
| Nc1nc(N[C@H]2CC[C@@H](O)C2)c2ccc(-c3ccn[nH]3)cc2n1 [Example 159] | 430 nM | – |
| Nc1nc(NC[C@H]2C[C@@H](O)C2)c2ccc(-c3ccn[nH]3)cc2n1 [Example 166] | 810 nM | – |
| Nc1nc(NC[C@H]2C[C@H](O)C2)c2ccc(-c3ccn[nH]3)cc2n1 [Example 167] | 1240 nM | – |
| Nc1nc(NCc2cnn(-c3ccccc3)c2)c2ccc(-c3ccn[nH]3)cc2n1 [Example 169] | 730 nM | – |
| COCCN1CCCC1CNc1nc(N)nc2cc(-c3ccn[nH]3)ccc12 (centres unmarked) [Example 172] | 2600 nM | – |
| CO[C@H]1C[C@H](Nc2nc(N)nc3cc(-c4ccn[nH]4)ccc23)C1 [Example 173] | 140 nM | – |
| Nc1nc(N[C@H]2C[C@H](CO)C2)c2ccc(-c3ccn[nH]3)cc2n1 [Example 176] | 90 nM | – |
| Nc1nc(NC2CCC2)c2ccc(-c3ccn[nH]3)cc2n1 [Example 177] | 160 nM | – |
| CC(C)(C)Nc1nc(N)nc2cc(-c3ccn[nH]3)ccc12 [Example 180] | 710 nM | – |
| N#C[C@H]1CC[C@H](Nc2nc(N)nc3cc(-c4ccn[nH]4)ccc23)CC1 [Example 182] | 130 nM | – |
| C[C@]1(O)C[C@@H](Nc2nc(N)nc3cc(-c4ccn[nH]4)ccc23)C1 [Example 191, (cis)-3-((2-amino-7-(1H-pyrazol-5-yl)quinazolin-4-yl)amino)-1-methylcyclobutan-1-ol] | 460 nM | – |
| C[C@]1(O)C[C@H](Nc2nc(N)nc3cc(-c4ccn[nH]4)ccc23)C1 [Example 192, (trans)-3-((2-amino-7-(1H-pyrazol-5-yl)quinazolin-4-yl)amino)-1-methylcyclobutan-1-ol] | 370 nM | – |
| Nc1nc(NC2CC2)c2ccc(-c3cc[nH]n3)cc2n1 [Example 193] | 100 nM | – |
| Nc1nc(NCC2(CN3CCCC3)CC2)c2ccc(-c3cc[nH]n3)cc2n1 [Example 194] | 210 nM | – |
| Nc1nc(NCC2(CN3CCOCC3)CC2)c2ccc(-c3cc[nH]n3)cc2n1 [Example 195] | 300 nM | – |
| COCC1(CNc2nc(N)nc3cc(-c4cc[nH]n4)ccc23)CC1 [Example 196] | 230 nM | – |
| Nc1nc(NCC2(O)CC2)c2ccc(-c3cc[nH]n3)cc2n1 [Example 197] | 310 nM | – |
| Nc1nc(NCC2(CO)CC2)c2ccc(-c3ccn[nH]3)cc2n1 [Example 204] | 180 nM | – |

Now from value to compound:

| EC50 (NLRP3) | EC50 (human TLR7) | Structure (SMILES) |
| --- | --- | --- |
| 510 nM | – | Nc1nc(NCc2cccnn2)c2ccc(-c3ccn[nH]3)cc2n1 [Example 142] |
| 90 nM | – | Nc1nc(NCc2cccnc2)c2ccc(-c3ccn[nH]3)cc2n1 [Example 144] |
| 8480 nM | – | Cn1cnc(CNc2nc(N)nc3cc(-c4ccn[nH]4)ccc23)c1 [Example 146] |
| 260 nM | – | Nc1nc(NCc2cn[nH]c2)c2ccc(-c3ccn[nH]3)cc2n1 [Example 147] |
| 510 nM | – | Nc1nc(NCCc2cnc[nH]2)c2ccc(-c3ccn[nH]3)cc2n1 [Example 148] |
| 650 nM | – | Nc1nc(NCc2ccc(Cl)cn2)c2ccc(-c3ccn[nH]3)cc2n1 [Example 151] |
| 420 nM | – | Nc1nc(NCCc2cccnc2)c2ccc(-c3ccn[nH]3)cc2n1 [Example 153] |
| 490 nM | – | Nc1nc(NCc2cocn2)c2ccc(-c3ccn[nH]3)cc2n1 [Example 155] |
| 440 nM | – | Nc1nc(NCc2cccc3[nH]ncc23)c2ccc(-c3ccn[nH]3)cc2n1 [Example 156] |
| 650 nM | – | COc1cccc(CNc2nc(N)nc3cc(-c4ccn[nH]4)ccc23)n1 [Example 160] |
| 2000 nM | – | Cc1cccc2nc(CNc3nc(N)nc4cc(-c5ccn[nH]5)ccc34)cn12 [Example 161] |
| 1240 nM | – | CN(C)c1ccc(CNc2nc(N)nc3cc(-c4ccn[nH]4)ccc23)nn1 [Example 164, N4-((6-(dimethylamino)pyridazin-3-yl)methyl)-7-(1H-pyrazol-5-yl)quinazoline-2,4-diamine] |
| 1280 nM | – | CCn1cc(CNc2nc(N)nc3cc(-c4ccn[nH]4)ccc23)cn1 [Example 168] |
| 200 nM | – | Nc1nc(NCc2ncccc2F)c2ccc(-c3ccn[nH]3)cc2n1 [Example 170] |
| 270 nM | – | Nc1nc(NCc2ccccn2)c2ccc(-c3ccn[nH]3)cc2n1 [Example 171] |
| 180 nM | – | Nc1nc(NCc2cnsc2)c2ccc(-c3ccn[nH]3)cc2n1 [Example 174] |
| 730 nM | – | Nc1nc(NCc2cncs2)c2ccc(-c3ccn[nH]3)cc2n1 [Example 175] |
| 180 nM | – | CC(C)(C)CNc1nc(N)nc2cc(-c3ccn[nH]3)ccc12 [Example 181] |
| 3000 nM | – | Nc1nc(NOCCO)c2ccc(-c3ccn[nH]3)cc2n1 [Example 186] |
| 230 nM | – | Nc1nc(NCc2ccn(-c3ccccn3)n2)c2ccc(-c3ccn[nH]3)cc2n1 [Example 187] |
| 8320 nM | – | COc1cnnc(CNc2nc(N)nc3cc(-c4ccn[nH]4)ccc23)c1 [Example 188] |
| 1410 nM | – | Cn1cnc(CNc2nc(N)nc3cc(-c4ccn[nH]4)ccc23)n1 [Example 189] |
| 4890 nM | – | CCn1cc(CNc2nc(N)nc3cc(-c4ccn[nH]4)ccc23)nn1 [Example 190] |
